Test results published in paper PMC6123788, “Down-regulation of cathepsin S and matrix metalloproteinase-9 via Src, a non-receptor tyrosine kinase, suppresses triple-negative breast cancer growth and metastasis” (Experimental & Molecular Medicine, 2018).
One block for each compound: values may come before it.

Assays:
Format in all cases: biochemical
Src [1] = target: T1, Src (Homo sapiens, UniProt P12931); test: CycLex c-Src kinase assay (IC90)
T1 construct: recombinant catalytic domain of c-Src
T1 sequence (P12931 254-536 limits assumed): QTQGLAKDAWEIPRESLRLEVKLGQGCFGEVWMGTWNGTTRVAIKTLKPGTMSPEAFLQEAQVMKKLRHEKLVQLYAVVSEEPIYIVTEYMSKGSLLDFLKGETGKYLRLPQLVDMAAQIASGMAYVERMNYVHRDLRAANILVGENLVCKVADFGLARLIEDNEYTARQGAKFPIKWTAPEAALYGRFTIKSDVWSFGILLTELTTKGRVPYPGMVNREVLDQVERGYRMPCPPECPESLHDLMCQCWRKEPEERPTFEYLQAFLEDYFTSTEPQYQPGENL

Src [2] = target: T1, Src; test: CycLex c-Src kinase assay (IC90); supported by DARTS in MDA-MB-231 lysate
CTSS [3] = target: T2, CTSS (Homo sapiens, UniProt P25774); test: fluorometric CTSS screening kit (BioVision K149), AFC substrate
T2 sequence (P25774 115-331): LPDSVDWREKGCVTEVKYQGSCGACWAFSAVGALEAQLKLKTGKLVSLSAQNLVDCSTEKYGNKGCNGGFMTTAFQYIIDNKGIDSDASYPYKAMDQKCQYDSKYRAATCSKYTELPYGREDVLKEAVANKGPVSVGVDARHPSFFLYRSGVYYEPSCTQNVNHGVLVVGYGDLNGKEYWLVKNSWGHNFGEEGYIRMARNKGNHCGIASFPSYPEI

CTSS [4] = target: T2, CTSS; test: as above; remark: listed apart in the source
CTSS [5] = target: T2, CTSS; test: fluorometric CTSS screening kit (BioVision K149), positive control

- IC90 (Src [1]): 27.3 µM
Structure (SMILES): COc1ccc(Cl)c(Nc2ncnc3cc(OCC4CCN(C)CC4)c(OC)cc23)c1 [AZM-475271]

- IC90 (Src [2]): 3.2 µM
- IC50 (CTSS [3]): 5.1 µM
Structure (SMILES): Cc1nc2c(c(C)c1O)CC(=O)N2 [BJ-2302]

Structure (SMILES): Cc1nc2[nH]c(=O)[nH]c2c(C)c1O [BJ-2304]
- fluorometric CTSS screening kit (BioVision K149), AFC substrate (CTSS [4]): BJ-2302 exhibited the strongest suppression of CTSS activity (Fig. 3b), followed by BJ-2304

- IC50 (CTSS [5]): 0.00019 µM
Structure (SMILES): CC(C)C[C@H](NC(=O)[C@H](Cc1ccccc1)NC(=O)OCc1ccccc1)C(=O)C=O [Z-FL-COCHO]
